Assay type in all cases: functional
Test [1] concerns Cryptococcus neoformans. Kind of test: Antifungal activity against Cryptococcus neoformans KCCM 50564 after 1 day by twofold broth dilution method. The conditions noted are these: KCCM 50564, 24 h. (In general: Dilution methods test growth across graded concentrations, often in twofold steps.)
For test [2], the system named is Aspergillus flavus. Kind of test: Antifungal activity against Aspergillus flavus KCCM 11899 by twofold broth dilution method.
Test [3] deals with Aspergillus niger. Kind of test: Antifungal activity against Aspergillus niger KCTC 1231 after 2 days by twofold broth dilution method. The conditions noted are these: KCTC 1231, 48 h.
For test [4], the system named is Pichia kudriavzevii. Kind of test: Antifungal activity against Candida krusei Berkout KCCM 11655 after 1 day by twofold broth dilution method. As to conditions: KCCM 11655, 24 h.
The subject of test [5] is Candida tropicalis. The experiment in a line: Antifungal activity against Candida tropicalis Berkout KCCM 50662 after 1 day by twofold broth dilution method. The conditions noted are these: KCCM 50662, 24 h.
The subject of test [6] is Candida albicans. The experiment in a line: Antifungal activity against Candida albicans Berkout KCCM 50235 after 1 day by twofold broth dilution method. As to conditions: KCCM 50235, 24 h.

Drawing on ChEMBL document CHEMBL1156041, “Synthesis and antifungal activity of benzo[d]oxazole-4,7-diones” (2009), this text covers MIC for 19 molecules.

≈ marks a conversion by molar mass, not a printed value.

Usually MIC stands for the lowest concentration found to suppress growth.

On to `CCc1nc2c(o1)C(=O)C(Nc1ccc(Cl)cc1)=C(Br)C2=O`, for which the minimum inhibitory concentration (MIC) in test [1] was found to be 6.3 µg/mL (≈ 16.5 µM); in test [2] it was 3.2 µg/mL (≈ 8.39 µM); in test [3], 3.2 µg/mL (≈ 8.39 µM); in test [4], 6.3 µg/mL (≈ 16.5 µM); in test [5] it was 25 µg/mL (≈ 65.5 µM); in test [6] it was 6.3 µg/mL (≈ 16.5 µM).
As to `CCc1nc2c(o1)C(=O)C(Sc1ccc(C)c(C)c1)=C(Sc1ccc(C)c(C)c1)C2=O`, the minimum inhibitory concentration (MIC) in test [1] came to 12.5 µg/mL (≈ 27.8 µM); in test [2] it was 6.3 µg/mL (≈ 14 µM); in test [3] it was 12.5 µg/mL (≈ 27.8 µM); in test [4], 3.2 µg/mL (≈ 7.12 µM); in test [5], 12.5 µg/mL (≈ 27.8 µM); in test [6], 25 µg/mL (≈ 55.6 µM).
With `CCc1nc2c(o1)C(=O)C(Nc1ccc(O)cc1)=C(Br)C2=O`, the MIC in test [1] worked out at 12.5 µg/mL (≈ 34.4 µM); in test [2] it was 25 µg/mL (≈ 68.8 µM); in test [3] it was 50 µg/mL (≈ 138 µM); in test [4] it was 25 µg/mL (≈ 68.8 µM); in test [5], 12.5 µg/mL (≈ 34.4 µM); in test [6] it was 50 µg/mL (≈ 138 µM).
On to `CCc1nc2c(o1)C(=O)C(Nc1cccc(C#N)c1)=C(Br)C2=O`, for which the MIC in test [1] came out at 12.5 µg/mL (≈ 33.6 µM); in test [2], 6.3 µg/mL (≈ 16.9 µM); in test [3], 12.5 µg/mL (≈ 33.6 µM); in test [4] it was 50 µg/mL (≈ 134 µM); in test [5], 6.3 µg/mL (≈ 16.9 µM); in test [6] it was 12.5 µg/mL (≈ 33.6 µM).
With `CCc1nc2c(o1)C(=O)C(Nc1ccc(F)cc1)=C(Br)C2=O`, the MIC was 6.3 µg/mL (≈ 17.3 µM) in test [1]; 3.2 µg/mL (≈ 8.76 µM) in test [2]; 6.3 µg/mL (≈ 17.3 µM) in test [3]; 6.3 µg/mL (≈ 17.3 µM) in test [4]; 6.3 µg/mL (≈ 17.3 µM) in test [5]; 12.5 µg/mL (≈ 34.2 µM) in test [6].
Take `CCc1nc2c(o1)C(=O)C(Nc1ccc([N+](=O)[O-])cc1)=C(Br)C2=O`: the minimal inhibitory concentration (MIC) in test [1] stood at 25 µg/mL (≈ 63.7 µM); in test [2] it was 25 µg/mL (≈ 63.7 µM); in test [3], 25 µg/mL (≈ 63.7 µM); in test [4], 50 µg/mL (≈ 127 µM); in test [5] it was 50 µg/mL (≈ 127 µM); in test [6] it was 50 µg/mL (≈ 127 µM).
For the molecule `CCc1nc2c(o1)C(=O)C(Sc1ccccc1)=C(Sc1ccccc1)C2=O`, the minimal inhibitory concentration (MIC) in test [1], in test [2], in test [3], in test [4], in test [5] and in test [6] was 12.5 µg/mL (≈ 31.8 µM) in each case.
For `CCc1nc2c(N)cccc2o1`, the MIC was 100 µg/mL (≈ 617 µM) in test [1]; over 100 µg/mL in test [2]; over 100 µg/mL in test [3]; 100 µg/mL (≈ 617 µM) in test [4]; 50 µg/mL (≈ 308 µM) in test [5]; over 100 µg/mL in test [6].
As to `CCc1nc2c(o1)C(=O)C(Nc1ccc(I)cc1)=C(Br)C2=O`, the MIC in test [1] is 3.2 µg/mL (≈ 6.76 µM); in test [2], 3.2 µg/mL (≈ 6.76 µM); in test [3], 6.3 µg/mL (≈ 13.3 µM); in test [4], 3.2 µg/mL (≈ 6.76 µM); in test [5] it was 6.3 µg/mL (≈ 13.3 µM); in test [6] it was 6.3 µg/mL (≈ 13.3 µM).
For the molecule `CCc1nc2c(o1)C(=O)C(Sc1ccc(CC)c(CC)c1)=C(Sc1ccc(CC)c(CC)c1)C2=O`, the MIC came out at 25 µg/mL (≈ 49.4 µM) in test [1]; 25 µg/mL (≈ 49.4 µM) in test [2]; 25 µg/mL (≈ 49.4 µM) in test [3]; 50 µg/mL (≈ 98.9 µM) in test [4]; 25 µg/mL (≈ 49.4 µM) in test [5]; 12.5 µg/mL (≈ 24.7 µM) in test [6].
Take `CCc1nc2c(o1)C(=O)C(Nc1ccc(C#N)cc1)=C(Br)C2=O`: the MIC in test [1] was 25 µg/mL (≈ 67.2 µM); in test [2], 25 µg/mL (≈ 67.2 µM); in test [3] it was 25 µg/mL (≈ 67.2 µM); in test [4], 50 µg/mL (≈ 134 µM); in test [5] it was 50 µg/mL (≈ 134 µM); in test [6], 50 µg/mL (≈ 134 µM).
In the case of `CCc1nc2c(o1)C(=O)C(Nc1cccc(O)c1)=C(Br)C2=O`, the MIC in test [1] amounted to 25 µg/mL (≈ 68.8 µM); in test [2], 25 µg/mL (≈ 68.8 µM); in test [3] it was 50 µg/mL (≈ 138 µM); in test [4] it was 25 µg/mL (≈ 68.8 µM); in test [5] it was 6.3 µg/mL (≈ 17.3 µM); in test [6], 50 µg/mL (≈ 138 µM).
For the molecule `CCc1nc2c(o1)C(=O)C(Nc1ccccc1)=C(Br)C2=O`, the MIC in test [1] amounted to 1.6 µg/mL (≈ 4.61 µM); in test [2], 3.2 µg/mL (≈ 9.22 µM); in test [3], 1.6 µg/mL (≈ 4.61 µM); in test [4], 3.2 µg/mL (≈ 9.22 µM); in test [5], 3.2 µg/mL (≈ 9.22 µM); in test [6], 1.6 µg/mL (≈ 4.61 µM).
Consider `CCc1nc2c(o1)C(=O)C(Nc1ccc(Br)cc1)=C(Br)C2=O`, for which the MIC amounted to 1.6 µg/mL (≈ 3.76 µM) in test [1]; 1.6 µg/mL (≈ 3.76 µM) in test [2]; 0.8 µg/mL (≈ 1.88 µM) in test [3]; 3.2 µg/mL (≈ 7.51 µM) in test [4]; 3.2 µg/mL (≈ 7.51 µM) in test [5]; 0.8 µg/mL (≈ 1.88 µM) in test [6].
Regarding `CCc1nc2c(o1)C(=O)C(Nc1cccc(Cl)c1)=C(Br)C2=O`, the minimum inhibitory concentration (MIC) was 3.2 µg/mL (≈ 8.39 µM) in test [1]; 3.2 µg/mL (≈ 8.39 µM) in test [2]; 3.2 µg/mL (≈ 8.39 µM) in test [3]; 6.3 µg/mL (≈ 16.5 µM) in test [4]; 6.3 µg/mL (≈ 16.5 µM) in test [5]; 6.3 µg/mL (≈ 16.5 µM) in test [6].
For the molecule `CCc1nc2c(o1)C(=O)C(Nc1ccc(OC)cc1)=C(Br)C2=O`, the MIC in test [1] amounted to 3.2 µg/mL (≈ 8.48 µM); in test [2], 6.3 µg/mL (≈ 16.7 µM); in test [3], 3.2 µg/mL (≈ 8.48 µM); in test [4] it was 1.6 µg/mL (≈ 4.24 µM); in test [5], 12.5 µg/mL (≈ 33.1 µM); in test [6] it was 6.35 µg/mL (≈ 16.8 µM).
As for `CCc1nc2c(o1)C(=O)C(Sc1ccc(Br)c(Br)c1)=C(Sc1ccc(Br)c(Br)c1)C2=O`, the minimum inhibitory concentration (MIC) in test [1] was 12.5 µg/mL (≈ 17.6 µM); in test [2] it was 25 µg/mL (≈ 35.3 µM); in test [3], 25 µg/mL (≈ 35.3 µM); in test [4], 12.5 µg/mL (≈ 17.6 µM); in test [5], 50 µg/mL (≈ 70.5 µM); in test [6] it was 50 µg/mL (≈ 70.5 µM).
For `CCc1nc2c(o1)C(=O)C(Nc1cccc(F)c1)=C(Br)C2=O`, the minimum inhibitory concentration (MIC) in test [1] is 6.3 µg/mL (≈ 17.3 µM); in test [2], 6.3 µg/mL (≈ 17.3 µM); in test [3], 6.3 µg/mL (≈ 17.3 µM); in test [4], 6.3 µg/mL (≈ 17.3 µM); in test [5], 3.2 µg/mL (≈ 8.76 µM); in test [6] it was 12.5 µg/mL (≈ 34.2 µM).
As to `Nc1nc(=O)[nH]cc1F` [FLUCYTOSINE], the MIC in test [1] is 3.2 µg/mL (≈ 24.8 µM); in test [2] it was 1.6 µg/mL (≈ 12.4 µM); in test [3], 1.6 µg/mL (≈ 12.4 µM); in test [4], 3.2 µg/mL (≈ 24.8 µM); in test [5], 3.2 µg/mL (≈ 24.8 µM); in test [6], 3.2 µg/mL (≈ 24.8 µM).
